# Source: PMC9241644, “Evaluation of Novel Quorum Sensing Inhibitors Targeting Auto-Inducer 2 (AI-2) for the Control of Avian Pathogenic Escherichia coli Infections in Chickens” (Microbiology Spectrum, 2022)
# Several values for one entry are separate records, joined by “and”; a condition that tells them apart may be missing. Identical values can stand only once.
# What was measured:
# Rif^R APEC O78 = assay: Comparative efficacy of QSI-5 and SDM in field simulated conditions (built-up floor litter); type: in vivo, Escherichia coli
# Text: Chickens were monitored for clinical signs for 8 DPI. Any chickens moribund during this period were humanely euthanized and necropsied to determine bacterial load in the internal organs (liver, heart, lung, and kidney). Internal organs were aseptically collected, weighed and suspended in 1× PBS, the amount of PBS added was adjusted based on the organ size to make a suspension, the organ size and amount of PBS added were included in the final calculation of the CFU. The samples were homogenized, serially diluted 10-fold, plated on MacConkey agar (Remel, CA, USA) containing 50 μg/mL rifampicin, and incubated at 37°C for 24 h to determine the CFU/g. Pathological lesions severity in internal organs (pericarditis, perihepatitis, airsacculitis, and lung congestion) was scored as described previously ([21], [59]). At 8 DPI, the remaining chickens were humanely euthanized and necropsied, lesions were scored, and the APEC load was quantified in internal organs as described above.
# To compare the efficacy of QSI-5 with an antibiotic SDM currently used in the field, chickens (n = 70) were raised on built-up floor litter in a field-simulated conditions. One-day-old broiler chickens (Case Farms Ohio Hatchery, OH, USA) were used for conducting the experiment. The optimized dose of QSI-5 (1 mg/L) and the therapeutic dose of SDM (495.323 mg/L) (0.05%) were given in drinking water daily for 7 days (starting from day 5 to day 11 of age). The volume of drinking water needed daily was determined as described above. On day 6, the chickens were infected s/c with Rif^r APEC O78 (5 × 10^6 CFU/chicken, s/c). PC (0.05% DMSO treated and infected) and NC (non-infected and non-treated) control groups were included. The mortality was recorded daily until the end of the experiment (42 days of age: slaughter age). At 8 DPI, half of the chickens from each group were necropsied, lesions were scored, and the APEC load was quantified in the internal organs as described above. The other half of the chickens were raised until day 42 to determine the impact of treatment on the body weight gain and feed intake. To calculate the FCR, body weight was measured once every week and feed intake was recorded every day. On day 42, the remaining chickens were euthanized, body weight was measured and 10 chickens from each group were randomly selected and necropsied, lesions and APEC load were assessed in the internal organs.
# [1] = PK profile of QSI-5 and SDM in chicken plasma (LC-MS); type: in vivo, chickens
# Procedure: The amount of QSI-5 and SDM in chicken plasma was measured using LC-MS. The optimized dose of QSI-5 (1 mg/L) and the therapeutic dose of SDM (495.323 mg/L) (0.05%) were administered orally as a single dose. Blood was collected individually from five chickens per group at different time points (0 h, 0.5 h, 1 h, 2 h, 4 h, 8 h, 12 h, 24 h) after administration of QSI-5 and SDM in vacutainer EDTA (10.8 mg) tubes (Becton, Dickinson, NJ, USA), blood was placed on ice for 1 h to clot, plasma was separated by centrifuging at 2,000 × g for 10 min at 4°C and stored at −80°C °C for LC-MS analysis. Plasma protein was precipitated by adding cold methanol and 10 μL (1 μg/mL) of an internal standard (IS) heavy-labeled phenylalanine (dissolved in 0.1% formic acid) was added to each 100 μL aliquot. The mixture was then incubated at −20°C for 30 min and centrifuged at 1300 × g for 25 min at 2°C. Sixty μL of the supernatant was pipetted into LC vials. For standard calibration, solutions of 0.0, 0.001, 0.005, 0.01, 0.05, 0.1, 0.5, 1, and 5 μg/mL of QSI-5 and SDM were prepared and 20 μL of each standard solution was added to 80 μL of cold methanol and IS as mentioned above. All samples were run by injecting 5 μL on an Agilent Poroshell 120 SB-C18 (2 × 100 mm in diameter, 2.7 μm particle sizes). The LC system (Thermo Fisher Scientific UltiMate 3000 HPLC) was used with solvent A (10 mM ammonium formate and 0.1% formic acid) and solvent B (methanol with a flow rate of 200 μL/min). The gradient was set to 2% B at 2 min, increased from 2% to 20% at 5 min, 40% at 7.5 min, and reached 90% after 9 min. The gradient was sustained at 90% B for 11 min and then decreased to 2% at 12 min and was held for equilibration until the run ended after 15 min. The mass spectrometer (Thermo Fisher Scientific Quantiva Triple Quadrupole) was set to multiple reactions monitoring mode (SRM) with a heated electrospray ionization source (ESI) in positive mode at 3.5 kV. Drug targets were monitored for QSI-5 at transitions 309.26→105.1 m/z and 309.26→203.15 m/z at 28 and 20 V collision energy, respectively, and for SDM at transitions 311.11→156.11 m/z and 311.11→245.07 m/z at 21 and 18 V CE. The analysis of plasma samples was performed in Campus Chemical Instrumentation Center, Mass Spectrometry and Proteomics Facility (CCIC, MS&P), The Ohio State University (https://live-ccic.pantheonsite.io/MSP).
# [2] = based on the observations during dosing in drinking water
# APEC = test system: APEC; set-up: method as in PMID 30270715; details: in vitro; cited from earlier work
# [3] = single oral dose (QSI-5 1 mg/L, SDM 495.323 mg/L)
smiles,measurement,setting,value
Cc1ccc(CN2CCN(CCCc3ccccc3)CC2)cc1 [QSI-5],"Average lesion severity, Lung","Rif^R APEC O78; Table S3, PC 1.85",0.21
same,"Average lesion severity, Liver","Rif^R APEC O78; Table S3, PC 2.52",1.68
same,"Average lesion severity, Airsac","Rif^R APEC O78; Table S3, PC 3.36",1.25
same,"Average lesion severity, Heart","Rif^R APEC O78; Table S3, PC 3.58",1.93
same,"Average APEC load, Liver","Rif^R APEC O78; Table S3, PC 7.24",4.95 Log CFU/ g of tissue
same,"Average APEC load, Lung","Rif^R APEC O78; Table S3, PC 7.68",4.93 Log CFU/ g of tissue
same,"Average APEC load, Kidney","Rif^R APEC O78; Table S3, PC 7.73",5.06 Log CFU/ g of tissue
same,"Average APEC load, Heart","Rif^R APEC O78; Table S3, PC 7.92",5.46 Log CFU/ g of tissue
same,Mortality rate % (Nr.),"Rif^R APEC O78; Table S3, until 42 days of age, QSI-5 (8/63), SDM (19/65), PC 45.6 (31/68)",12.7%
same,reduction in mortality compared with the PC group,"Rif^R APEC O78; built-up floor litter, QSI-5 1 mg/L, SDM 495.3 mg/L (0.05%) in drinking water 7 days, s/c APEC O78 5 × 10^6 CFU/chicken",88.4% and 72.2%
same,half-life,[1]; single oral dose,short half-life
same,time by which excreted,[1]; single oral dose,≤ 24 HPT
same,maximum concentration in plasma (Cmax),[1]; [3],0.76 ng/mL
same,time of peak concentration in plasma,[1]; [3],2 HPT
same,time at which absorbed / detected in blood,"[1]; single oral dose (QSI-5 1 mg/L, SDM 495.323 mg/L), h posttreatment",0.5 HPT
same,aqueous solubility,[2],good aqueous solubility
same,effect on the growth of APEC,APEC,does not affect the growth of APEC
